Our source for the Ki and IC50 values is ChEMBL document CHEMBL1140093, “Structure-activity relationships for a novel series of dopamine D2-like receptor ligands based on N-substituted 3-aryl-8-azabicyclo[3.2.1]octan-3-ol” (J Med Chem, 2008).

Assay [1] concerns the target T1, D(3) dopamine receptor (Homo sapiens, UniProt P35462). As to the kind of experiment: Displacement of [125I]IABN from human dopamine D3 receptor expressed in HEK293 cells. The class given is cell-based. In general terms: In a radioligand displacement assay an active substance lowers the binding of a labelled ligand.
Assay [2] addresses T2, 5-hydroxytryptamine receptor 2C (Homo sapiens, UniProt P28335).
T2 sequence (P28335 whole entry): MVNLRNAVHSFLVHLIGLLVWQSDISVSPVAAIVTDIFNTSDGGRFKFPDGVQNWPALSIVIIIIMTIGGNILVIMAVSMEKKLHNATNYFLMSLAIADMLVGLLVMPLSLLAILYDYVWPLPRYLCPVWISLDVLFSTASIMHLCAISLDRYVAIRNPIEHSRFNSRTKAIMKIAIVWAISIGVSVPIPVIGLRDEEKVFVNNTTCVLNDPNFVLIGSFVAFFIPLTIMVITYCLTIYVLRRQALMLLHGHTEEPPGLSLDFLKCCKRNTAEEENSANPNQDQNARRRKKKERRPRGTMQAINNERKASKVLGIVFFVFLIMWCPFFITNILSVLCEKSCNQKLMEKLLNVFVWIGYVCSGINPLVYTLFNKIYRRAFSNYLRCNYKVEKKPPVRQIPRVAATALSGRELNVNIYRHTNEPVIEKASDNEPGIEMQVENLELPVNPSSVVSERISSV
As to the kind of experiment: Displacement of [3H]mesulergine from 5HT2C receptor.

The target of assay [3] is T3, 5-hydroxytryptamine receptor 1A (Homo sapiens, UniProt P08908).
T3 sequence (P08908 whole entry): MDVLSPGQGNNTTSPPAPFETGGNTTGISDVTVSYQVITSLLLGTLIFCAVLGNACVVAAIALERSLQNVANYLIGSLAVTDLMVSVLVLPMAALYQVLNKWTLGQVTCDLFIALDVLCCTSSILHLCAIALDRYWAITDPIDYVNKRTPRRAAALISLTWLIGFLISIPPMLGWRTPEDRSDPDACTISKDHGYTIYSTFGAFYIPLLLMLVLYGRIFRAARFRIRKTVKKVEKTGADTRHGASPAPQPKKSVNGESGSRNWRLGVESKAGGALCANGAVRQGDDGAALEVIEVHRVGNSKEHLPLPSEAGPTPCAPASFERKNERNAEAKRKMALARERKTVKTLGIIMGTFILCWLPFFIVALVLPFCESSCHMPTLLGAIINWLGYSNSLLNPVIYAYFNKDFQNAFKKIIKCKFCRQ
Put plainly: Displacement of [3H]8OH-DPAT from 5HT1A receptor.

A further assay concerns the target T4, D(4) dopamine receptor (Homo sapiens, UniProt P21917).
T4 sequence (P21917 whole entry): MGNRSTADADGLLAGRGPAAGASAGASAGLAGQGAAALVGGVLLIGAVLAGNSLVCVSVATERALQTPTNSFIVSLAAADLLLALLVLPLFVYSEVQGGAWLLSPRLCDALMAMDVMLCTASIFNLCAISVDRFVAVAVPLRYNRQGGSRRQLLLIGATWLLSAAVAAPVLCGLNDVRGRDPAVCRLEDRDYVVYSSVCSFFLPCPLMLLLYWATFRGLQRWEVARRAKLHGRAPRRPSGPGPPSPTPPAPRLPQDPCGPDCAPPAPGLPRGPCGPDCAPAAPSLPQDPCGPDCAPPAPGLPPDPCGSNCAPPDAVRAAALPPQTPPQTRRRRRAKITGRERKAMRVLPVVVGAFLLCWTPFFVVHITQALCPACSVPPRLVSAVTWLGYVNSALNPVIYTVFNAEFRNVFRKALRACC
Put plainly: Displacement of [125I]IABN from human dopamine D4 receptor.

In assay [4] the target is T5, D(2) dopamine receptor (Homo sapiens, UniProt P14416). As to the kind of experiment: Antagonist activity at dopamine D2 receptor. In kind it is functional.
Assay [5] addresses 5-hydroxytryptamine receptor 2A (Homo sapiens, UniProt P28223). Put plainly: Displacement of [3H]ketanserin from 5HT2A receptor.
For the next assay, the target named is D(1A) dopamine receptor (Homo sapiens, UniProt P21728). As to the kind of experiment: Displacement of [3H]SCH23390 from dopamine D1 receptor.
Assay [6] concerns the target T1, D(3) dopamine receptor. As to the kind of experiment: Antagonist activity at dopamine D3 receptor. The class given is functional.
The target of assay [7] is T5, D(2) dopamine receptor. As to the kind of experiment: Displacement of [125I]IABN from human dopamine D2L receptor expressed in HEK293 cells. The class given is cell-based.

Each structure is given as a SMILES string.

T1 sequence (P35462 whole entry): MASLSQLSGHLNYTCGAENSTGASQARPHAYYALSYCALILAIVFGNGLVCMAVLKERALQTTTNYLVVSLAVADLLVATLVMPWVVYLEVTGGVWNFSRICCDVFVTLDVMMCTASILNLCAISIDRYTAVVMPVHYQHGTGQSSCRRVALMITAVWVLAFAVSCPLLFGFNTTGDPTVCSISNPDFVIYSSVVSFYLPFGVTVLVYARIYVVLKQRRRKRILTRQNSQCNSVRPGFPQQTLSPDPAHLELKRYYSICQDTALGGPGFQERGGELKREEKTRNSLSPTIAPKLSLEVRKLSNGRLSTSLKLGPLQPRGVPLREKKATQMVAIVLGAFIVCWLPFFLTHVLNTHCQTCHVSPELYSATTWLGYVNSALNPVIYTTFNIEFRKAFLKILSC
T5 sequence (P14416 whole entry): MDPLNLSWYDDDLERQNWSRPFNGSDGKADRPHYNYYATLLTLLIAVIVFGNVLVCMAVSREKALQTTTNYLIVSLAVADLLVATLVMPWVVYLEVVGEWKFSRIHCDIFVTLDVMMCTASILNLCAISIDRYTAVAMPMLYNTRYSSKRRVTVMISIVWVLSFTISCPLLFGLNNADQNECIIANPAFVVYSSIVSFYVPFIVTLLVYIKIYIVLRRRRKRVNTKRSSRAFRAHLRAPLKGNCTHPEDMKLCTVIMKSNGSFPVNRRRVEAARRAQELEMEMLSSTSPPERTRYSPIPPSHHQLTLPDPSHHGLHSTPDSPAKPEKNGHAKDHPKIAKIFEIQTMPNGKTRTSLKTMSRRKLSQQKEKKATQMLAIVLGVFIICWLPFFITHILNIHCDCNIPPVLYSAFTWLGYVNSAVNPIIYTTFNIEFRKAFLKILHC
Chain of D(1A) dopamine receptor (P21728 whole entry): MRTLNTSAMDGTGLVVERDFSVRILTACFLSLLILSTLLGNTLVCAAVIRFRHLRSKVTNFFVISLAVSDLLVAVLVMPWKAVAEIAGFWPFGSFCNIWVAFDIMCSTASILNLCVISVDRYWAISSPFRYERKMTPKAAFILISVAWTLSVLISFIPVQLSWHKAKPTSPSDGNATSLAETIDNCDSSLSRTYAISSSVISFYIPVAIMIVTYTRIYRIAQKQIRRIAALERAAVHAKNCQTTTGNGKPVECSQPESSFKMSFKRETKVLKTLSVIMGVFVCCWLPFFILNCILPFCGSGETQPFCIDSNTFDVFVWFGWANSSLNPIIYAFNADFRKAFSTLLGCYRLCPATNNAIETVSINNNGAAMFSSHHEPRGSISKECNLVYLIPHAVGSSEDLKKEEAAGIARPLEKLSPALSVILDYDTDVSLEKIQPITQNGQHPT
Chain of 5-hydroxytryptamine receptor 2A (P28223 whole entry): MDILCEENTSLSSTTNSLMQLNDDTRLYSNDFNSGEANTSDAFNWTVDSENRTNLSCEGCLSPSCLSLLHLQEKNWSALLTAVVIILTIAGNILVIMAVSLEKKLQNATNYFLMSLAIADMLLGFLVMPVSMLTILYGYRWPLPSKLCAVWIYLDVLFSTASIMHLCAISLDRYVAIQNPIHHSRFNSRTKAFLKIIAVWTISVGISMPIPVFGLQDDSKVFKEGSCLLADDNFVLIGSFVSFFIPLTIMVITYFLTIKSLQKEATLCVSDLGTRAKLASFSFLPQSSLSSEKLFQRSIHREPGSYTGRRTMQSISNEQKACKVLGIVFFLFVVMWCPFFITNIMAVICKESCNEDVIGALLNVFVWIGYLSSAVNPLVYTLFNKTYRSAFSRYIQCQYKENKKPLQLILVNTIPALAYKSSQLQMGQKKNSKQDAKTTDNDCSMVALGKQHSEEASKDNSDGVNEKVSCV

A word on the Ki: it is the equilibrium dissociation constant of an inhibitor or competing ligand from its target. Low values mean higher affinity, high ones lower affinity. By IC50 is commonly meant the concentration at which inhibition is half-maximal. Read a low IC50 as inhibition by little substance. With `O[C@]1(c2ccc(Cl)cc2)C[C@H]2CC[C@@H](C1)N2Cc1c[nH]c2ccccc12`, the Ki on D(3) dopamine receptor [1] was 15.5 nM; in assay [2] it was greater than 10000 nM; in assay [3], greater than 10000 nM; at D(4) dopamine receptor, greater than 5000 nM; in assay [5], 4770 nM; at D(1A) dopamine receptor, 1220 nM. The Ki on D(2) dopamine receptor [7] turned out to be 33.4 nM. Further, the IC50 against D(2) dopamine receptor [4] turned out to be 48.3 nM; at D(3) dopamine receptor [6] it was 12.3 nM.
Consider `O[C@@]1(c2ccc(Cl)c(Cl)c2)C[C@H]2CC[C@@H](C1)N2Cc1c[nH]c2ccccc12`, for which the Ki on D(3) dopamine receptor [1] was 6.35 nM; in assay [3], greater than 10000 nM; in assay [5] it was 2800 nM. At D(3) dopamine receptor [6], this compound displayed an IC50 of 10.2 nM.
Regarding `O[C@@]1(c2cccc(Cl)c2Cl)C[C@H]2CC[C@@H](C1)N2Cc1c[nH]c2ccccc12`, the Ki came out at 480 nM on D(3) dopamine receptor [1] and 545 nM at D(2) dopamine receptor [7].
On to `O[C@@]1(c2ccc(F)cc2)C[C@H]2CC[C@@H](C1)N2Cc1c[nH]c2ccccc12`, for which the Ki on D(3) dopamine receptor [1] came out at 31 nM.
Consider `O[C@@]1(c2ccc3ccccc3c2)C[C@H]2CC[C@@H](C1)N2Cc1c[nH]c2ccccc12`, for which the Ki at D(3) dopamine receptor [1] was 224 nM; on D(2) dopamine receptor [7] it was 196 nM.
For `COc1ccccc1[C@]1(O)C[C@H]2CC[C@@H](C1)N2Cc1c[nH]c2ccccc12`, in that order: 6410 nM and 2070 nM.
As for `CSc1ccc([C@]2(O)C[C@H]3CC[C@@H](C2)N3Cc2c[nH]c3ccccc23)cc1`, the Ki at D(3) dopamine receptor [1] turned out to be 541 nM; on D(2) dopamine receptor [7], 565 nM.
Consider `O[C@@]1(c2ccc(Cl)cc2)C[C@H]2CC[C@@H](C1)N2Cc1n[nH]c2ccccc12`, for which the Ki was 84.7 nM at D(3) dopamine receptor [1] and 225 nM on D(2) dopamine receptor [7].
In turn, `COc1ccc2[nH]cc(CN3[C@@H]4CC[C@H]3C[C@](O)(c3ccc(Cl)cc3)C4)c2c1` returned an inhibition constant (Ki) at D(3) dopamine receptor [1] of 21.2 nM.
As for `COc1ccc2[nH]cc(CN3[C@@H]4CC[C@H]3C[C@](O)(c3ccc(SC)cc3)C4)c2c1`, the values for the Ki at D(3) dopamine receptor [1] and on D(2) dopamine receptor [7] were 1210 nM and 554 nM, respectively.
For the compound `O[C@@]1(c2ccc(Cl)cc2)C[C@H]2CC[C@@H](C1)N2Cc1csc2ccccc12`, the Ki was 3.62 nM at D(3) dopamine receptor [1]; greater than 10000 nM in [2]; 1720 nM in assay [3]; 140 nM at D(4) dopamine receptor; 3000 nM at D(1A) dopamine receptor; 12.9 nM on D(2) dopamine receptor [7]. For the same compound, the IC50 against D(2) dopamine receptor [4] came to 26.2 nM; on D(3) dopamine receptor [6], 4.2 nM.
`O[C@@]1(c2cccc(Cl)c2Cl)C[C@H]2CC[C@@H](C1)N2Cc1csc2ccccc12`: the results for the Ki on D(3) dopamine receptor [1] and on D(2) dopamine receptor [7] were 431 nM and 280 nM, respectively.
As to `O[C@@]1(c2ccc(Cl)cc2)C[C@H]2CC[C@@H](C1)N2Cc1coc2ccccc12`, the Ki at D(3) dopamine receptor [1] was 0.71 nM; in [2], greater than 10000 nM. Also, the IC50 against D(3) dopamine receptor [6] is 0.85 nM.
Consider `O[C@]1(c2ccc(Cl)c(Cl)c2)C[C@H]2CC[C@@H](C1)N2Cc1coc2ccccc12`, for which the Ki was 0.34 nM at D(3) dopamine receptor [1] and 1.7 nM on D(2) dopamine receptor [7].
Compound `O[C@@]1(c2cccc(Cl)c2Cl)C[C@H]2CC[C@@H](C1)N2Cc1coc2ccccc12` showed a Ki at D(3) dopamine receptor [1] of 32.2 nM.
With `O[C@@]1(c2ccc(F)cc2)C[C@H]2CC[C@@H](C1)N2Cc1coc2ccccc12`, the Ki on D(3) dopamine receptor [1] came out at 1.2 nM; at D(2) dopamine receptor [7] it was 4.9 nM.
Regarding `O[C@@]1(c2ccc(Br)cc2)C[C@H]2CC[C@@H](C1)N2Cc1coc2ccccc12`, the results for the Ki at D(3) dopamine receptor [1] and on D(2) dopamine receptor [7] were 0.92 nM and 1.5 nM, respectively.
With `O[C@@]1(c2ccc(Cl)cc2)C[C@H]2CC[C@@H](C1)N2Cc1coc2ccc(F)cc12`, the Ki on D(3) dopamine receptor [1] was 0.37 nM; at D(2) dopamine receptor [7] it was 1.2 nM.
The like results for `O[C@@]1(c2ccc(Cl)cc2)C[C@H]2CC[C@@H](C1)N2Cc1coc2ccc3ccccc3c12` were, in that order, 8.4 nM and 11.7 nM.
For `O[C@@]1(c2ccc(Cl)cc2)C[C@H]2CC[C@@H](C1)N2Cc1coc2c1ccc1ccccc12`, the results for the Ki on D(3) dopamine receptor [1] and at D(2) dopamine receptor [7] were 2 nM and 5.6 nM, respectively.
For `O[C@@]1(c2ccc(Cl)c(Cl)c2)C[C@H]2CC[C@@H](C1)N2Cc1coc2ccc(F)cc12`, in that order: 0.53 nM and 1.4 nM.
On to `OC1(c2ccc(Cl)cc2)CCN(Cc2c[nH]c3ccccc23)CC1`, for which the affinity on D(4) dopamine receptor corresponds to a Ki of 1100 nM. The IC50 against D(3) dopamine receptor [6] was determined as 90.4 nM.
Consider `COc1ccc2occ(CN3[C@@H]4CC[C@H]3C[C@](O)(c3ccc(Cl)cc3)C4)c2c1` (single isomer, unassigned), for which the Ki was determined as 2.1 nM at D(3) dopamine receptor [1] and 1.5 nM at D(2) dopamine receptor [7].
